The values below come from patent US20240124504A1, “AROMATIC HETEROCYCLIC COMPOUND, AND PHARMACEUTICAL COMPOSITION AND APPLICATION THEREOF” (GT APEIRON THERAPEUTICS LIMITED, priority 2020, published 2024).

A value given as a limit tells only on which side of the number the result lay.

The target of the experiment is CDK7/cyclinH/MAT1 complex (Homo sapiens, UniProt P50613). The experiment is described as follows: In-vitro enzymatic inhibitory activity testing, CDK7 inhibition assay (Caliper EZ Reader II). To be noted: CDK7/cyclinH/MAT1 6 nM, 180 min at 27° C. It counts as biochemical. On the procedure: CDK12/CyclinK was diluted in an assay buffer (80 mM MES PH 6.5, 0.01% Tween 20, 50 ug/mL BSA, 10 mM MgCl2) to afford a corresponding enzyme solution with the 2.4 concentration. A compound was dissolved in dimethyl sulfoxide (DMSO) at a concentration of 10 mM. […] 2 ul of a test compound solution was mixed with 5 ul of the enzyme solution; after incubation for 10 min, 5 ul of the polypeptide substrate and ATP mixed solution was added; incubation was carried out for 180 min at 27° C.; and then, the reaction was terminated by adding 4 uL of EDTA with a concentration of 120 mM to each sample. […] A CDK9/cyclinT1 complex (8 nM) and a “5-FAM-CDK9tide” peptide substrate (2 IM, synthetic fluorophore-labeled peptide with the following sequence: 5-FAM-GSRTPMY-NH2, wherein 5-FAM was as defined above and NH2 represented C-terminal amide) were used for a CDK9 inhibition assay. […] A CDK2/cyclinE1 complex (0.5 nM) and “5-FAM-CDK7tide” (2 μM) as defined above were used for CDK2 inhibition assay.
CDK7/cyclinH/MAT1 complex, sequence (P50613 whole entry, species assumed): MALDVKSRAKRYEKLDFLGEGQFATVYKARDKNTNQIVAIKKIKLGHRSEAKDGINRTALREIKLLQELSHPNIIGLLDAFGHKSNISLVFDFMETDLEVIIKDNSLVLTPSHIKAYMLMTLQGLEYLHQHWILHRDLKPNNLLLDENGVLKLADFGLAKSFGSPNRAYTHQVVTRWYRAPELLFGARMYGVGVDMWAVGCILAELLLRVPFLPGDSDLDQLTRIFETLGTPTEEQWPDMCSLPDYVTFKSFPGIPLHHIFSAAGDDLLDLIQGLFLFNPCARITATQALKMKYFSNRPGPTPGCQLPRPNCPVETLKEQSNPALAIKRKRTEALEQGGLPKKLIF
CDK7/cyclinH/MAT1 complex, sequence (P51946 whole entry partner, species assumed): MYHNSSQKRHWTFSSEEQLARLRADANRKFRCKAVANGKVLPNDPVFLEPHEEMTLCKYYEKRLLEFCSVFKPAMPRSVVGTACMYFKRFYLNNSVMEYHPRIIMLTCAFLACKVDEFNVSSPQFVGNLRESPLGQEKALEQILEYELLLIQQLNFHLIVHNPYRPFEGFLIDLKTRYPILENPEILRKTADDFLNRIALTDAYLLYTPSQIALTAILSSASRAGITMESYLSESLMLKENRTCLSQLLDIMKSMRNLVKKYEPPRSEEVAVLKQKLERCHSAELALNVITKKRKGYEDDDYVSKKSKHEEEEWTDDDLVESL
CDK7/cyclinH/MAT1 complex, sequence (P51948 whole entry partner, species assumed): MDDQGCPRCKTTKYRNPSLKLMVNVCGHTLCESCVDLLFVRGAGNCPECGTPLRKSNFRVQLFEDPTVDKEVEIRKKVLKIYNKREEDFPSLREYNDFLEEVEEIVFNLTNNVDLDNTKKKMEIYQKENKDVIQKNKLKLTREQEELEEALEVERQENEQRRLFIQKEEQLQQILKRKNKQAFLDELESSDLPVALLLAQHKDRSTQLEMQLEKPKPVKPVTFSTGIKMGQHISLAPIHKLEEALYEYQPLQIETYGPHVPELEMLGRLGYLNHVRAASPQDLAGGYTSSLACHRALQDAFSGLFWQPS
A reaction mixture was analyzed on Caliper EZ Reader II by electrophoretic separation of a fluorogenic substrate and a phosphorylated product. Data were calculated by using GraphPad Prism version 6.0, and IC50 values were adjusted and obtained by using a nonlinear regression model of a dose response curve.
In turn, `CP(C)(=O)c1cccc2c(-c3nc(N[C@@H]4CC(F)(F)C[C@@H]4O)ncc3C(F)(F)F)c[nH]c12` (relative stereo) [Compound 187, (3-(2-(cis-4,4-difluoro-2-hydroxycyclopentylamino)-5-(trifluoromethyl)pyrimidin-4-yl)-1H-indole-7-yl)dimethylphosphine oxide] registered an IC50 of 20 to 200 nM.
As for `C[C@@H](CO)Nc1ncc(C(F)(F)F)c(-c2c[nH]c3nc(C4CCCCO4)ccc23)n1` (single isomer, unassigned) [Compound 183], the figure is 20 to 200 nM; as for `CP(C)(=O)c1cccc2c(-c3nc(N[C@@H]4CC(F)(F)C[C@H]4O)ncc3C(F)(F)F)c[nH]c12` (relative stereo) [Compound 188, (3-(2-(trans-4,4-difluoro-2-hydroxycyclopentylamino)-5-(trifluoromethyl)pyrimidin-4-yl)-1H-indole-7-yl)dimethylphosphine oxide], < 20 nM.
The same measure for `CP(C)(=O)c1cccc2c(-c3nc(NCC4(O)CCCCCC4)ncc3C(F)(F)F)c[nH]c12` [Compound 152]: 20 to 200 nM.
The same measure for `CCCC[C@H](CO)Nc1ncc(C(F)(F)F)c(-c2c[nH]c3c(P(C)(C)=O)cccc23)n1` [Compound 170, (R)-(3-(2-((1-hydroxyhexan-2-yl)amino)-5-(trifluoromethyl)pyrimidin-4-yl)-1H-indole-7-yl)dimethylphosphine oxide]: 20 to 200 nM; for `C[C@@H](CO)Nc1ncc(C(F)(F)F)c(-c2n[nH]c3c(P(C)(C)=O)cccc23)n1` [Compound 193, (S)-(3-(2-((1-hydroxypropan-2-yl)amino)-5-(trifluoromethyl)pyrimidin-4-yl)-1H-indazol-7-yl)dimethylphosphine oxide]: 20 to 200 nM; for `CN(C)C[C@@H]1CCCC1Nc1ncc(C(F)(F)F)c(-c2c[nH]c3c(P(C)(C)=O)cccc23)n1` (stereo in doubt) [Compound 133, (3-(2-((cis-2-((dimethylamino)methyl)cyclopentyl)amino)-5-(trifluoromethyl)pyrimidin-4-yl)-1H-indole-7-yl)dimethylphosphine oxide]: < 20 nM.
In turn, `CP(C)(=O)c1cccc2c(-c3nc(N[C@H](CO)C4CCCCC4)ncc3C(F)(F)F)c[nH]c12` [Compound 169, (S)-(3-(2-((1-cyclohexyl-2-hydroxyethyl)amino)-5-(trifluoromethyl)pyrimidin-4-yl)-1H-indole-7-yl)dimethylphosphine oxide] showed an IC50 of 20 to 200 nM.
The same measure for `CP(C)(=O)c1cccc2c(-c3nc(NC4CC(F)(F)CC4O)ncc3C(F)(F)F)c[nH]c12` (single isomer, unassigned) [Compound 190]: 20 to 200 nM.
The same measure for `CP(C)(=O)c1cccc2c(-c3nc(NC4CC(F)(F)CC4O)ncc3C(F)(F)F)c[nH]c12` (single isomer, unassigned) [Compound 189]: 20 to 200 nM; for `CN(C)C[C@H]1CCCC1Nc1ncc(C(F)(F)F)c(-c2c[nH]c3c(P(C)(C)=O)cccc23)n1` (stereo in doubt) [Compound 134, (3-(2-((trans-2-((dimethylamino)methyl)cyclopentyl)amino)-5-(trifluoromethyl)pyrimidin-4-yl)-1H-indole-7-yl)dimethylphosphine oxide]: < 20 nM; for `CP(C)(=O)c1cccc2c(-c3nc(NC4CCC[C@@H]4CN)ncc3C(F)(F)F)c[nH]c12` (stereo in doubt) [Compound 132, (3-(2-((trans-2-(aminomethyl)cyclopentyl)amino)-5-(trifluoromethyl)pyrimidin-4-yl)-1H-indole-7-yl)dimethylphosphine oxide]: < 20 nM.
As for `C[C@@H](CO)Nc1ncc(C(F)(F)F)c(-c2c[nH]c3nc(C4CCCCO4)ccc23)n1` (single isomer, unassigned) [Compound 184], the figure is 20 to 200 nM.

One may read the IC50 as the concentration at which inhibition is half-maximal.
